Assay results published in the supplement of paper PMC10307832.

Legend:
Assay in all cases: relative viability (nuclei count vs DMSO), 5 days (fraction); higher = more cells survive
[1] = compound: N=C1NC(=O)/C(=C/c2ccc(O)cc2)S1 [Mirin] + COc1cc2c(Oc3ccc(NC(=O)C4(C(=O)Nc5ccc(F)cc5)CC4)cc3F)ccnc2cc1OCCCN1CCOCC1 [Foretinib] (partner 0.25 µM)
How it was run: (§1)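 After 5 days of treatment, lung cancer cells in 1536-well plates were fixed and stained in a single step (final 0.05% Triton X-100, 1% formaldehyde, 1 ug/ml Hoechst) and their nuclei counted on 4× images. Treatment had been applied by pin tool the day after seeding as one drug alone or as a fixed anchor-drug dose with five library-drug doses (not always all listed) in √10 steps. Relative viability is the nuclei count of treated wells divided by that of vehicle wells, and values are medians of duplicate plates.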

[2] = compound: CCC1=CN=CN=C1N2CCN(CC2)CC3=NC4=C(N3)C=C(C=C4)C(F)(F)F + Nc1nc2[nH]cc(CCc3ccc(C(=O)N[C@@H](CCC(=O)O)C(=O)O)cc3)c2c(=O)[nH]1 [Pemetrexed] (partner 0.2 µM)
How it was run: as §1

[3] = compound: N=C1NC(=O)/C(=C/c2ccc(O)cc2)S1 [Mirin] + Cc1nc(Nc2ncc(C(=O)Nc3c(C)cccc3Cl)s2)cc(N2CCN(CCO)CC2)n1 [Dasatinib] (partner 0.075 µM)
How it was run: as §1

[4] = compound: CCn1c(-c2nonc2N)nc2cnc(Oc3cccc(NC(=O)c4ccc(OCCN5CCOCC5)cc4)c3)cc21 + NC(=O)Nc1cc(-c2cccc(F)c2)sc1C(=O)N[C@H]1CCCNC1 [AZD7762] (partner 0.2 µM)
How it was run: as §1

Cell Line	relative viability ([1]; first compound 0.25 µM)	relative viability ([1]; first compound 0.7906 µM)	relative viability ([1]; first compound 2.5 µM)	relative viability ([1]; first compound 7.906 µM)	relative viability ([1]; first compound 25 µM)	relative viability ([2]; first compound 0.04 µM)	relative viability ([2]; first compound 0.1265 µM)	relative viability ([2]; first compound 0.4 µM)	relative viability ([2]; first compound 1.265 µM)	relative viability ([2]; first compound 4 µM)	relative viability ([3]; first compound 0.25 µM)	relative viability ([3]; first compound 0.7906 µM)	relative viability ([3]; first compound 2.5 µM)	relative viability ([3]; first compound 7.906 µM)	relative viability ([3]; first compound 25 µM)	relative viability ([4]; first compound 0.04 µM)	relative viability ([4]; first compound 0.1265 µM)	relative viability ([4]; first compound 0.4 µM)	relative viability ([4]; first compound 1.265 µM)	relative viability ([4]; first compound 4 µM)
NCI-H358	0.734	0.742	0.739	0.565	0.406	0.159	0.193	0.176	0.151	0.167	0.2	0.16	0.161	0.134	0.13	0.517	0.56	0.329	0.293	0.337
RERF-LC-KJ	0.974	0.915	0.932	0.892	0.901	0.393	0.455	0.459	0.441	0.476	0.958	0.831	0.843	0.685	0.688	0.941	0.956	0.448	0.298	0.538
NCI-H1792	–	–	–	–	–	0.773	0.736	0.82	–	0.665	0.768	0.86	0.777	–	0.632	0.541	0.37	0.15	0.106	0.11
SK-LU-1	0.801	0.924	0.863	0.728	0.731	0.892	0.992	0.958	0.985	0.998	0.209	0.163	0.161	0.209	0.224	–	–	–	–	–
COR-L 105	1.06	0.865	1.25	1.17	0.781	1.07	1.12	1.28	1.01	1.03	0.347	0.328	0.382	0.288	0.261	–	–	–	–	–
NCI-H2023	0.806	0.837	0.993	0.894	0.919	0.452	0.25	0.204	0.239	0.232	0.562	0.541	0.548	0.463	0.335	–	–	–	–	–
EBC-1	0.103	0.116	0.102	0.102	0.0881	–	–	–	–	–	–	–	–	–	–	–	–	–	–	–
ABC-1	1.35	1.08	0.971	1.03	0.587	–	–	–	–	–	0.682	0.525	0.62	0.536	0.375	0.96	0.663	0.445	0.402	0.625
NCI-H1650	1.22	1.11	0.968	1.43	0.782	0.456	0.333	0.401	0.364	0.393	0.307	0.294	0.306	0.256	0.231	–	–	–	–	–
SK-MES-1	0.859	1.07	0.914	0.945	1.31	1.03	1.01	1	0.993	1.03	0.368	0.341	0.446	0.475	0.389	–	–	–	–	–
NCI-H1563	0.962	0.974	0.865	1.03	0.875	0.6	0.619	0.834	0.598	0.887	0.536	0.471	0.481	0.42	0.428	–	–	–	–	–
NCI-H1648	–	–	–	–	–	0.614	–	–	0.769	0.683	–	–	–	–	–	0.978	1.02	0.981	1.09	0.693
NCI-H1299	1.1	1.15	1.07	1.12	1.24	–	–	–	–	–	–	–	–	–	–	–	–	–	–	–
A549	0.89	1.02	0.902	0.956	1.04	–	–	–	–	–	–	–	–	–	–	–	–	–	–	–
NCI-H1623	0.787	0.708	0.865	0.716	0.625	–	–	–	–	–	0.46	0.426	0.542	0.44	0.497	–	–	–	–	–
NCI-H1703	0.309	0.31	0.368	0.413	0.3	–	–	–	–	–	–	–	–	–	–	–	0.111	0.115	0.119	0.123
NCI-H2228	0.689	0.883	0.974	1.1	0.752	–	0.363	0.335	0.303	0.294	0.594	0.458	0.516	0.448	0.412	–	–	–	–	–
NCI-H727	0.9	0.889	1.18	1.14	1.12	–	–	–	–	–	0.345	0.285	0.337	0.4	0.256	–	0.699	0.539	0.566	0.739
NCI-H2009	1.19	1.33	1.2	1.19	1.17	0.98	1.02	0.951	0.992	1.08	0.292	0.341	0.323	0.227	0.139	–	–	–	–	–
HCC-44	–	–	–	–	–	0.635	0.63	0.684	0.685	0.644	–	–	–	–	–	1.07	1.18	0.916	0.975	0.333
NCI-H522	–	–	–	–	–	0.855	1.2	0.892	0.876	0.958	0.814	0.869	0.845	0.652	0.648	0.697	0.821	0.549	0.689	0.474
Calu-6	0.902	1.03	0.918	0.903	0.865	–	–	–	–	–	–	–	–	–	–	–	–	–	–	–
COR-L23	1.07	1.14	0.879	1.01	1.05	0.208	0.199	0.189	0.198	0.206	0.55	0.563	0.534	0.553	0.524	–	–	–	–	–
NCI-H520	0.742	0.784	0.874	0.874	0.439	0.667	0.719	0.762	0.576	0.602	0.192	0.164	0.282	0.172	0.249	–	–	–	–	–
